Our source for the IC50 values is ChEMBL document CHEMBL1152925, “Vladimuliecins A and B: cytotoxic pentacyclic pregnanols from Vladimiria muliensis” (J Nat Prod, 2009).

What all share (format): functional, cell-based
In one experiment the test system is HeLa. The experiment is described as follows: Cytotoxicity against human HeLa cells after 48 hrs by SRB assay.
The next experiment deals with SMMC-7721. In words: Cytotoxicity against human SMMC7721 cells after 48 hrs by SRB assay.
The subject of another experiment is HL-60. The experiment is described as follows: Cytotoxicity against human HL60 cells after 48 hrs by SRB assay.
The mark [1] stands for this setting: Homo sapiens, SMMC-7721, 48 h, read-out: IC50.
The mark [2] stands for this setting: Homo sapiens, HL-60, 48 h, read-out: IC50.

Take `C[C@@H](O)[C@H]1CC[C@@]2(O)[C@]1(C)CC[C@@H]1[C@@]3(C)CC[C@@H]4C[C@@]43[C@H](O)C[C@]12O`: the IC50 with HeLa (hela) was 165 µM; with SMMC-7721 (smmc-7721) it was 101 µM; in the experiment on HL-60 (hl-60) it was 138 µM.
For `CO[C@@]12[C@H](COC(N)=O)C3=C(C(=O)C(C)=C(N)C3=O)N1C[C@@H]1N[C@@H]12` [MITOMYCIN], the IC50 came to 3.3 µM in the experiment with HeLa (Homo sapiens, HeLa, 48 h, read-out: IC50); 5.4 µM in the experiment with SMMC-7721 (setting [1]); 1.5 µM in the experiment on HL-60 (setting [2]).
Consider `CC(=O)O[C@H](C)[C@H]1CC[C@@]2(O)[C@]1(C)CC[C@@H]1[C@@]3(C)CC[C@@H]4C[C@@]43[C@H](OC(C)=O)C[C@]12O` [VLADIMULIECIN A], for which the half-maximal inhibitory concentration (IC50) in the experiment with HeLa (hela) is 167 µM; in the experiment with SMMC-7721 (setting [1]) it was 98.6 µM; with HL-60 (setting [2]) it was 99 µM.
On to `CC(=O)O[C@H](C)[C@H]1CC[C@@]2(O)[C@]1(C)CC[C@@H]1[C@@]3(C)CC[C@@H]4C[C@@]43[C@H](O)C[C@]12O` [VLADIMULIECIN B], for which the IC50 turned out to be 121 µM in the experiment on HeLa (hela), 104 µM in the experiment on SMMC-7721 (smmc-7721) and 88 µM in the experiment on HL-60 (setting [2]).
